Results on 32 molecules are retold here after patent US9556139B2, “6-substituted phenoxychroman carboxylic acid derivatives” (Array BioPharma Inc., priority 2008, dated 2017).

One may read the EC50 as the concentration that produces a half-maximal response.

The structures appear in SMILES notation.

human DP2, sequence (Q9Y5Y4 whole entry): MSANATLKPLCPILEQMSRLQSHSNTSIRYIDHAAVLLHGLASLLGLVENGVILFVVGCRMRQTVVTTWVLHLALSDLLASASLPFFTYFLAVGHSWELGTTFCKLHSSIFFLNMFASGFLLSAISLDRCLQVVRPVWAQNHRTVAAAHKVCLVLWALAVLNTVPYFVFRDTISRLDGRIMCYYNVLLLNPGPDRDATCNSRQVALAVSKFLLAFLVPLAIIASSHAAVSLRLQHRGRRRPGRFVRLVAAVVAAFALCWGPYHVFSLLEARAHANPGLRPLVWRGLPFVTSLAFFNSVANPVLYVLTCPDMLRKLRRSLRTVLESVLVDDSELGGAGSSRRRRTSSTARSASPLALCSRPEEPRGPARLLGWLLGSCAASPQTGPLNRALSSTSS

One test concerns the target human DP2 (Homo sapiens (Human), UniProt Q9Y5Y4). Put plainly: DP-2 Binding Inhibition Assay (3H-PGD2 binding to membranes of K562 cells expressing DP2). The note with it: EC50 (nM) 4% HSA, inhibition of 3H-PGD2 binding, 4% HSA. The method, then: DP-2 Binding Inhibition Assay
The coding sequence of human DP2 was introduced into the human Leukemic cell line K562 by electroporation and stable clones expressing DP2 were obtained by limiting dilution followed by cell surface staining with a rat monoclonal antibody specific for human DP2. Membranes were prepared from one of these DP2 expressing clones and used to determine the ability of compounds of the present invention to inhibit binding of prostaglandin D2 (PGD2) to its receptor DP2 in the presence of one or more of the following serum protein concentrations, 0.1% BSA, 1% HSA or 4% HSA, by the following procedure. Membranes (1.25 μg/well for 0.1% BSA and 6 μg/well for 1% or 4% HSA) were mixed with ^3H-labeled PGD2 and various concentrations of test compounds in 150 μL of binding buffer (50 mM Tris-HCl, pH 7.4, 40 mM MgCl2, 0.1% bovine serum albumin, 0.1% NaN3) in 96-well U-bottom polypropylene plates. After incubation for 60 minutes at room temperature, the assay was transferred to a filtration plate (#MAFB; Millipore Corporation, Bedford, Mass.), and washed three times with binding buffer. Radioactivity was measured by a scintillation counter (TopCount; PerkinElmer Life Sciences, Boston, Mass.). Nonspecific binding was determined by incubations in the presence of 1 μM unlabeled PGD2 or 5 μM of a known DP2 antagonist. EC50 values for inhibition of binding were determined for each compound tested from the inflexion point of a standard 4-parameter logistical curve fitted to the values obtained.
In turn, `O=C(NC1CCC(c2ccccc2)CC1)c1ccc(Oc2cc3c(cc2Cl)C(C(=O)O)CCO3)cc1` (single isomer, unassigned) [Example 155 peak 2, 6-chloro-7-(4-(4-phenylcyclohexylcarbamoyl)phenoxy)chroman-4-carboxylic acid, isomer 2] came in with an EC50 of 1670 nM.

Staying with this test, now noted: read-out: EC50 (Nm) 1% HSA; inhibition of 3H-PGD2 binding, 1% HSA.
As to `N#Cc1cc2c(cc1Oc1ccc(C(=O)Nc3ccc(Cl)cc3)cc1)OCCC2C(=O)O` (stereo not shown) [Example 74, 7-(4-(4-Chlorophenylcarbamoyl)phenoxy)-6-cyanochroman-4-carboxylic acid], the EC50 was 23.3 nM.

On to `CC(Cc1ccc(Cl)cc1)NC(=O)c1ccc(Oc2cc3c(cc2C#N)C(C(=O)O)CCO3)cc1` (stereo not shown) [Example 132, 7-(4-(1-(4-Chlorophenyl)propan-2-ylcarbamoyl)phenoxy)-6-cyanochroman-4-carboxylic acid], for which the EC50 is 37.4 nM.

For `O=C(NCCc1ccc(Cl)cc1)c1ccc(Oc2cc3c(cc2Cl)C(C(=O)O)CCO3)c([N+](=O)[O-])c1` (stereo not shown) [Example 9, 6-Chloro-7-(4-(4-chlorophenethylcarbamoyl)-2-nitrophenoxy)chroman-4-carboxylic acid], the EC50 was found to be 203 nM.

On to `CC(C)(C)c1ccc(CCNC(=O)c2ccc(Oc3cc4c(cc3C#N)C(C(=O)O)CCO4)cc2)cc1` (stereo not shown) [Example 57, 7-(4-(4-tert-Butylphenethylcarbamoyl)phenoxy)-6-cyanochroman-4-carboxylic acid], for which the EC50 was determined as 18.9 nM.

As to `O=C(NCCc1ccc(Cl)cc1)c1ccc(Oc2cc3c(cc2Cl)C(C(=O)O)CCO3)cc1` (stereo not shown) [Example 10, 6-Chloro-7-(4-(4-chlorophenethylcarbamoyl)phenoxy)chroman-4-carboxylic acid], the EC50 was 13.9 nM.

As for `COc1cccc(CCNC(=O)c2ccc(Oc3cc4c(cc3C#N)C(C(=O)O)CCO4)cc2)c1` (stereo not shown) [Example 48, 7-(4-((3-Methoxyphenethyl)carbamoyl)phenoxy)-6-cyano-3,4-dihydro-2H-chromene-4-carboxylic acid], the EC50 came to 30.7 nM.

On to `O=C(NCCc1ccc(Cl)cc1)c1ccc(Oc2c(Cl)cc3c(c2Cl)OCCC3C(=O)O)cc1` (stereo not shown) [Example 46, Sodium 6,8-dichloro-7-(4-(4-chlorophenethylcarbamoyl)phenoxy)chroman-4-carboxylate], for which the EC50 was 15.8 nM.

The test is the same for the next values; noted with them: read-out: EC50 (nM) 4% HSA; inhibition of 3H-PGD2 binding, 4% HSA.
Turning to `O=C(NCCc1ccc(OC(F)F)cc1)c1ccc(Oc2cc3c(cc2Cl)C(C(=O)O)CCO3)cc1` (stereo not shown) [Example 223, 6-chloro-7-(4-(4-(difluoromethoxy)phenethylcarbamoyl)phenoxy) chroman-4-carboxylic acid], the EC50 amounted to 209 nM.

In the case of `O=C(NCCc1ccc(Cl)cc1Br)c1ccc(Oc2cc3c(cc2Cl)C(C(=O)O)CCO3)cc1` (stereo not shown) [Example 32, Sodium 7-(4-(2-bromo-4-chlorophenethylcarbamoyl)phenoxy)-6-chlorochroman-4-carboxylate], the EC50 came to 88 nM.

For the molecule `COc1cc(C2CC2)ccc1CCNC(=O)c1ccc(Oc2cc3c(cc2Cl)[C@@H](C(=O)O)CCO3)cc1` (single isomer, unassigned; enantiomer 2) [235 Enantiomer 2], the EC50 stood at 17 nM.

In the case of `Cc1cc(C(=O)NCCc2ccc(Cl)cc2)ccc1Oc1cc2c(cc1Cl)C(C(=O)O)CCO2` (stereo not shown) [Example 181, Sodium 6-chloro-7-(4-(4-chlorophenethylcarbamoyl)-2-methylphenoxy)chroman-4-carboxylate], the EC50 came to 331 nM.

Consider `O=C(NC1CCN(c2cccc(C(F)(F)F)c2)C1)c1ccc(Oc2cc3c(cc2Cl)C(C(=O)O)CCO3)cc1` (stereo not shown) [Example 122, Sodium 6-chloro-7-(4-(1-(3-(trifluoromethyl)phenyl)pyrrolidin-3-ylcarbamoyl)phenoxy)chroman-4-carboxylate], for which the EC50 amounted to 242 nM.

Turning to `O=C(NCCc1cc(F)ccc1Oc1ccc(Cl)c(Cl)c1)c1ccc(Oc2cc3c(cc2Cl)C(C(=O)O)CCO3)cc1` (stereo not shown) [Example 212, sodium 6-chloro-7-(4-(2-(3,4-dichlorophenoxy)-5-fluorophenethylcarbamoyl)phenoxy)chroman-4-carboxylate], the EC50 was determined as 81.5 nM.

Take `O=C(NC1CCN(c2ccc(Cl)cc2Cl)CC1)c1ccc(Oc2cc3c(cc2Cl)C(C(=O)O)CCO3)cc1` (stereo not shown) [Example 124, Sodium 6-chloro-7-(4-(1-(2,4-dichlorophenyl)piperidin-4-ylcarbamoyl)phenoxy)chroman-4-carboxylate]: the EC50 came to 841 nM.

`COc1cc(Cl)c(CCNC(=O)c2ccc(Oc3cc4c(cc3Cl)C(C(=O)O)CCO4)cc2)c(OC)c1` (stereo not shown) [Example 226, 6-chloro-7-(4-(2-chloro-4,6-dimethoxyphenethylcarbamoyl)phenoxy)chroman-4-carboxylic acid]: the EC50 came out at 88.5 nM.

Consider `CC(C)(C)CCNC(=O)c1ccc(Oc2cc3c(cc2Cl)C(C(=O)O)CCO3)cc1` (stereo not shown) [Example 179, Sodium 6-chloro-7-(4-(3,3-dimethylbutylcarbamoyl)phenoxy)chroman-4-carboxylate], for which the EC50 was 1110 nM.

`O=C(NCCc1ccc(C(F)(F)F)cc1Cl)c1ccc(Oc2cc3c(cc2Cl)C(C(=O)O)CCO3)cc1` (stereo not shown) [Example 98, Sodium 6-chloro-7-(4-(2-chloro-4-(trifluoromethyl)phenethylcarbamoyl)phenoxy)chroman-4-carboxylate]: the EC50 amounted to 193 nM.

On to `O=C(NCCCCc1ccc(Cl)cc1)c1ccc(Oc2cc3c(cc2Cl)C(C(=O)O)CCO3)cc1` (stereo not shown) [Example 15, Sodium 6-chloro-7-(4-(4-(4-chlorophenyl)butylcarbamoyl)phenoxy)chroman-4-carboxylate], for which the EC50 turned out to be 746 nM.

As to `O=C(NCCc1ccc(Cl)cc1F)c1ccc(Oc2cc3c(cc2Cl)C(C(=O)O)CCO3)cc1` (stereo not shown) [Example 230, 6-chloro-7-(4-(4-chloro-2-fluorophenethylcarbamoyl)phenoxy)chroman-4-carboxylic acid], the EC50 worked out at 243 nM.

In the case of `O=C(NCCc1ccc(Cl)cc1)c1ccc(Oc2cc3c(cc2Cl)C(C(=O)O)CCO3)cc1` (stereo not shown) [Example 10, 6-Chloro-7-(4-(4-chlorophenethylcarbamoyl)phenoxy)chroman-4-carboxylic acid], the EC50 is 225 nM.

On to `O=C(NCCc1ccccc1Br)c1ccc(Oc2cc3c(cc2Cl)C(C(=O)O)CCO3)cc1` (stereo not shown) [Example 91, Sodium 7-(4-(2-bromophenethylcarbamoyl)phenoxy)-6-chlorochroman-4-carboxylate], for which the concentration for a half-maximal effect (EC50) amounted to 192 nM.

Take `O=C(NCCc1ccc(-c2ccccc2Cl)cc1Cl)c1ccc(Oc2cc3c(cc2Cl)C(C(=O)O)CCO3)cc1` (stereo not shown) [Example 29, Sodium 6-chloro-7-(4-(2-(2′,3-dichlorobiphenyl-4-yl)ethylcarbamoyl)phenoxy)chroman-4-carboxylate]: the concentration giving a half-maximal response (EC50) stood at 137 nM.

For the molecule `O=C(NCCc1ccccc1Cl)c1ccc(Oc2cc3c(cc2Cl)C(C(=O)O)CCO3)cc1` (stereo not shown) [Example 79, Sodium 6-chloro-7-(4-(2-chlorophenethylcarbamoyl)phenoxy)chroman-4-carboxylate], the EC50 was 98.9 nM.

For `COc1ccc(OC)c(CCNC(=O)c2ccc(Oc3cc4c(cc3Cl)C(C(=O)O)CCO4)cc2)c1` (stereo not shown) [Example 88, Sodium 6-chloro-7-(4-(2,5-dimethoxyphenethylcarbamoyl)phenoxy)chroman-4-carboxylate], the EC50 is 203 nM.

For `O=C(N[C@H]1CCCN(c2cccc(Cl)c2)C1)c1ccc(Oc2cc3c(cc2Cl)C(C(=O)O)CCO3)cc1` (stereo partly drawn) [Example 125, Sodium 6-chloro-7-(4-((S)-1-(3-chlorophenyl)piperidin-3-ylcarbamoyl)phenoxy)chroman-4-carboxylate], the EC50 was 421 nM.

Take `O=C(NCCc1ccc2ccccc2c1)c1ccc(Oc2cc3c(cc2Cl)C(C(=O)O)CCO3)cc1` (stereo not shown) [Example 87, Sodium 6-chloro-7-(4-(2-(naphthalen-2-yl)ethylcarbamoyl)phenoxy)chroman-4-carboxylate]: the EC50 was determined as 234 nM.

For `COc1ccc(CCNC(=O)c2ccc(Oc3cc4c(cc3Cl)C(C(=O)O)CCO4)cc2)cc1` (stereo not shown) [Example 140, Sodium 6-chloro-7-(4-(4-methoxyphenethylcarbamoyl)phenoxy)chroman-4-carboxylate], the EC50 amounted to 498 nM.

On to `O=C(NCCc1ccc(-c2ccccc2)cc1Cl)c1ccc(Oc2cc3c(cc2Cl)C(C(=O)O)CCO3)cc1` (stereo not shown) [Example 31, Sodium 6-chloro-7-(4-(2-(3-chlorobiphenyl-4-yl)ethylcarbamoyl)phenoxy)chroman-4-carboxylate], for which the EC50 was determined as 91.4 nM.

As to `O=C(NCCc1ccc(Cl)cc1)c1ccc(Oc2c(Cl)cc3c(c2Cl)OCCC3C(=O)O)cc1` (stereo not shown) [Example 46, Sodium 6,8-dichloro-7-(4-(4-chlorophenethylcarbamoyl)phenoxy)chroman-4-carboxylate], the EC50 is 176 nM.

In the case of `O=C(NCCc1cccc(Cl)c1)c1ccc(Oc2cc3c(cc2Cl)C(C(=O)O)CCO3)cc1` (stereo not shown) [Example 150, Sodium 6-chloro-7-(4-(3-chlorophenethylcarbamoyl)phenoxy)chroman-4-carboxylate], the EC50 came out at 341 nM.

Consider `O=C(NCCc1cccc(Oc2ccccc2)c1)c1ccc(Oc2cc3c(cc2Cl)C(C(=O)O)CCO3)cc1` (stereo not shown) [Example 149, Sodium 6-chloro-7-(4-(3-phenoxyphenethylcarbamoyl)phenoxy)chroman-4-carboxylate], for which the EC50 worked out at 280 nM.

On to `COc1cccc(CCNC(=O)c2ccc(Oc3cc4c(cc3Cl)C(C(=O)O)CCO4)cc2)c1OC` (stereo not shown) [Example 89, Sodium 6-chloro-7-(4-(2,3-dimethoxyphenethylcarbamoyl)phenoxy)chroman-4-carboxylate], for which the EC50 was found to be 146 nM.

Take `O=C(NCCCc1ccc(Cl)cc1)c1ccc(Oc2cc3c(cc2Cl)C(C(=O)O)CCO3)cc1` (stereo not shown) [Example 77, Sodium 6-chloro-7-(4-(3-(4-chlorophenyl)propylcarbamoyl)phenoxy)chroman-4-carboxylate]: the EC50 was found to be 356 nM.
